Reference: PMC9196629, “Synthesis, Characterization and Antitumor Mechanism Investigation of Heterometallic Ru(Ⅱ)-Re(Ⅰ) Complexes” (Frontiers in Chemistry, 2022)

How the values were obtained:
HeLa cells [1] = test: Hoechst 33342 staining of nuclear morphology; format: cell-based, human; conditions: 24 h
Procedure: First, changes in cell morphology of HeLa cells induced by RuRe-1 and RuRe-2 were examined with 2'-(4-ethoxyphenyl)-5-(4-methyl-1-piperazinyl)-2,5′-bi-1H-benzimidazole trihydrochloride (Hoechst 33342) staining. Hoechst 33342 is a blue fluorescent dye that can penetrate cell membranes and is commonly used to stain cell nuclei ([Tian et al., 2018]).
FIGURE 2 RuRe-1 and RuRe-2 induced HeLa cells apoptosis measured by confocal microscopy with Hoechst 33342 staining (λ ex = 405 nm, λ em = 460 ± 20 nm). The incubation time of the compounds was 24 h. Arrows indicate apoptotic morphological nuclei. Scale bar: 20 μm.
Hoechst 33342 staining assay. After HeLa cells were adhered to the confocal dishes, the medium was replaced with a medium containing the indicated concentrations of RuRe-1 and RuRe-2. After incubation for 24 h, the medium was aspirated and the cells were washed three times with PBS, then fixed with 4% paraformaldehyde. Subsequently, cells were labelled 10 mins with Hoechst 33342 (5 μg/mL) and observed immediately under confocal microscope (λex = 405 nm, λem = 460 ± 20 nm).

[2] = Stability in human serum albumin (HSA) solution by UV-Vis spectroscopy; format: physicochemical; conditions: 10 μM, HSA solution, 0, 24 and 48 h
Procedure: The stabilities of RuRe-1 and RuRe-2 in PBS and human serum albumin (HSA) were tested through UV–Vis spectroscopy.
Supplementary Figure 12. UV-Vis absorption spectra of RuRe-1 (10 μM), RuRe-2 (10 μM), Ru-1 (10 μM), Ru-2 (10 μM) and Re-1 (10 μM) in PBS (A) and HSA (B) solution collected at 0, 24, and 48 h, respectively.

HeLa cells [3] = test: Mitochondrial membrane potential (MMP) by Rh123 staining; format: cell-based, human; conditions: 6 h, confocal microscopy
Text: Apoptosis is associated with a decrease in MMP ([Wu et al., 2022]), so we investigated the effects of RuRe-1 and RuRe-2 on MMP. A decrease in fluorescence intensity of rhodamine 123 (Rh123) can indicate the loss of MMP ([Ma et al., 2019]). […] The decline of MMP further confirmed that RuRe-1 and RuRe-2 could influence mitochondrial function and promote apoptosis.
FIGURE 6 RuRe-1 and RuRe-2 induced the loss of MMP analyzed by confocal microscopy with Rh123 staining (λ ex = 488 nm, λ em = 530 ± 20 nm). The incubation time of the compounds was 6 h. Scale bar: 20 μm.
Measurement of MMP. After HeLa cells were adhered to the confocal dishes, the medium was replaced with medium containing the indicated concentrations of RuRe-1 and RuRe-2 for 6 h. Subsequently, the medium was aspirated and the cells were washed three times with PBS, then stained with Rh123 (1 μg/mL) for 30 mins. After washing with PBS twice, cells were observed under a confocal microscopy (λex = 488 nm, λem = 530 ± 20 nm).

[4] = test system: A549R (cisplatin-resistant A549); test: MTT cytotoxicity assay; format: cell-based, human; conditions: for IC50: MTT, 48 h incubation, mean ± SD; for fold greater ability to kill A549R cells than cisplatin: ratio of IC50 values, cisplatin / complex
Procedure: The anticancer activities of RuRe-1 and RuRe-2 against four cancer cell lines: HeLa (human cervical cancer cells), HepG2 (human hepatocellular carcinoma), A549 (human lung cancer cells), A549R (cisplatin-resistant A549) and one normal cell line LO2 (human normal liver cells) were determined by 3-(4,5-dimethylthiazole)-2,5-diphenyltetraazolium bromide (MTT) assay, while the mononuclear complexes Ru-1, Ru-2, Re-1 and cisplatin were selected as controls. […] And the in vitro antiproliferative efficacies of the compounds against HeLa cells were in the following order: RuRe-2 > RuRe-1 > Re-1 > cisplatin > Ru-1 > Ru-2. […] The anticancer activity of the mononuclear rhenium complex Re-1 was between 5.6 μM and 8.0 μM, which contributed the most to the antitumor activities of the heteronuclear Ru(II)-Re(Ⅰ) metal complexes.
Cell lines and culture conditions. HeLa, HepG2, A549, A549R and LO2 cells were purchased from Nanjing KeyGen Biotech., and cultured in DMEM or RPMI 1640 complete medium at 37 ℃ with 5% CO2 atmosphere.
In vitro cytotoxicity assay. The anti-tumor activity of mononuclear complexes Ru-1, Ru-2, Re-1 and heteronuclear RuRe-1 and RuRe-2 were determined by MTT (5 mg/mL) assay. Cells were placed in 96-well plates and cultured for 24 h at 37 ℃ in a 5% CO2 incubator. After replacing the culture medium with fresh medium containing RuRe-1 or RuRe-2 at the indicated concentration, cells were cultured for 48 h. 20 μL MTT was added to each well 4 h before the end of the incubation. Subsequently, the liquid in the cell wells was poured out and 150 μL/well DMSO was added to dissolve the MTT-formazan crystals. The absorbance of living cells at 570 nm was detected.

PARP = test: Western blot of apoptosis-related proteins; format: cell-based, human; conditions: HeLa, different concentrations, 24 h
Procedure: Cysteine aspartate proteases play an important role in apoptosis, especially caspase-3 protein, which is one of the most important execution factors in the apoptotic pathway ([Wang X. et al., 2021]). The poly(ADP-ribose) polymerase (PARP) is associated with DNA repair and guardianship of genetic integrity ([Pandey and Black, 2021]). After treating HeLa cells with different concentrations of RuRe-1 or RuRe-2 for 24 h, the expression of caspase-3 and the caspase substrate PARP apoptotic protein were detected by western blot. […] It was further shown that RuRe-1 and RuRe-2 are activators of caspase-3, which can trigger apoptosis in HeLa cells.
FIGURE 4 Expression of apoptosis-related protein (caspase-3 and PARP) in HeLa cells treated with RuRe-1 and RuRe-2 for 24 h.
Western blot analysis. HeLa cells were plated into the 6-well plates, after treating with different doses of RuRe-1 and RuRe-2 for 24 h, the cells were collected and lysed. The protein concentration was determined using the BCA assay kit. Equal amounts of protein were ran on SDS-PAGE and then transferred to the PVDF membrane.

HeLa cells [5] = test: Colony formation assay; format: cell-based, human; conditions: 24 h treatment then 7 days
Procedure: The consequence of increased local cell migration is distal invasion, and the clonal growth of distal invasive cells will produce a second tumor ([Wang et al., 2017]). We further investigated the ability of RuRe-1 and RuRe-2 to inhibit the formation of cell colonies by cell colony formation assay.
Colony forming assay. HeLa cells were cultured in 6-well plates at a density of 500 cells per well. After cells had adhered, the medium was replaced with medium containing the indicated concentrations of RuRe-1 and RuRe-2 for 24 h. Subsequently, the medium was replaced with fresh medium and the cells were cultured for 7 days to form colonies. The colonies formed were fixed with 4% paraformaldehyde, and stained with crystal violet (0.005%). Finally, colonies were calculated and the images were taken using digital camera.

Row | SMILES | nuclear morphology (Hoechst 33342) (HeLa cells [1]) | stability in HSA (UV-Vis spectral characteristics and absorption peaks) [2] | MMP (green fluorescence intensity of Rh123) (HeLa cells [3]) | IC50 [4] | fold greater ability to kill A549R cells than cisplatin [4] | cleavage of PARP (western blot) (PARP) | cell populations (colonies) compared to the control group (HeLa cells [5]; 9.3 μM) | cell populations (colonies) compared to the control group (HeLa cells [5]; 7.5 μM)
1 | F[P-](F)(F)(F)(F)F.F[P-](F)(F)(F)(F)F.F[P-](F)(F)(F)(F)F.[C-]#[O+].[C-]#[O+].[C-]#[O+].[Re+].[Ru+2].c1ccc(-c2ccccn2)nc1.c1ccc(-c2ccccn2)nc1.c1ccc(-c2ccnc3c2ccc2c(-c4ccccc4)ccnc23)cc1.c1cnc2c(c1)c1nc(-c3ccncc3)[nH]c1c1cccnc12 [RuRe-1, [Ru(bpy)2LRe(CO)3(DIP)](PF6)3] | typical apoptotic characteristics | no significant change | decrease in the green fluorescence intensity of Rh123 in a dose-dependent manner | 10.4 ± 1.2 µM | approximately 8.7 fold | induced the cleavage | 4.8% | –
2 | F[P-](F)(F)(F)(F)F.F[P-](F)(F)(F)(F)F.F[P-](F)(F)(F)(F)F.[C-]#[O+].[C-]#[O+].[C-]#[O+].[Re+].[Ru+2].c1ccc(-c2ccnc3c2ccc2c(-c4ccccc4)ccnc23)cc1.c1cnc2c(c1)c1nc(-c3ccncc3)[nH]c1c1cccnc12.c1cnc2c(c1)ccc1cccnc12.c1cnc2c(c1)ccc1cccnc12 [RuRe-2, [Ru(phen)2LRe(CO)3(DIP)](PF6)3] | typical apoptotic characteristics | no significant change | decrease in the green fluorescence intensity of Rh123 in a dose-dependent manner | 16.7 ± 0.8 µM | ~5.4 fold | induced the cleavage | – | 3.9%
